# Experimental data from patent US10280150B2 (FORMA TM2, Inc., priority 2014, dated 2019).
# Where two headings read alike, the source gives them in different places.
# Assays:
# [1] = target: IDH1-R132H recombinant protein (Homo sapiens (Human), UniProt O75874, R132H); experiment: IDH1-R132H enzymatic assay (inhibition of NADPH consumption, diaphorase/resazurin readout); type: biochemical; conditions: read-out: Enzyme IDH1 R132H IC50 (Range)
# Method in brief: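 Compound was preincubated 15 min at 25 °C with 30 nM IDH1-R132H or 10 nM IDH1-R132C in Tris pH 7.5 buffer with MgCl2, BSA and Triton X-100. Reaction with 2 mM α-ketoglutarate and 20 μM NADPH (solution concentrations) ran 45 min at 25 °C. Remaining NADPH was detected via diaphorase/resazurin fluorescence (ex 535/em 590 nm), and IC50 came from four-parameter fits.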
# [2] = target: IDH1-R132C recombinant protein (Homo sapiens (Human), UniProt O75874, R132C); experiment: IDH1-R132C enzymatic assay (inhibition of NADPH consumption, diaphorase/resazurin readout); type: biochemical; conditions: read-out: Enzyme IDH1 R132C IC50 (Range)
# Chain of IDH1-R132C recombinant protein (O75874 whole entry R132C): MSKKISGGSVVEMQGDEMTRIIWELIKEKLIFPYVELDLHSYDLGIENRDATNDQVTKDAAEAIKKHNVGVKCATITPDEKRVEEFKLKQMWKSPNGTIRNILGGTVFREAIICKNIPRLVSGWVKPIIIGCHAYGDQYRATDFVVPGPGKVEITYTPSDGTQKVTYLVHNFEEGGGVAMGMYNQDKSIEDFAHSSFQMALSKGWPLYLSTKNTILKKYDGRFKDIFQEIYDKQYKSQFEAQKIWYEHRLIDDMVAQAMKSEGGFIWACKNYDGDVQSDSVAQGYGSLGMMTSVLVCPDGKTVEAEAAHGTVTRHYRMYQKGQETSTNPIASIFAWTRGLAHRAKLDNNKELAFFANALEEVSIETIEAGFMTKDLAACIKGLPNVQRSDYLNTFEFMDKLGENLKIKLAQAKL
# Protocol: Assays were performed in a 384-well black plate. An aliquot of 250 nL of compound was incubated with 10 μL of 30 nM IDH1-R132H or 10 nM IDH1-R132C recombinant protein in assay buffer (50 mM Tris pH=7.5, 150 mM NaCl, 5 mM MgCl2, 0.1% (w/v) Bovine Serum Albumin, and 0.01% Triton X-100) in each well at 25° C. for 15 minutes. After the plate was centrifuged briefly, an aliquot of 10 μL of 2 mM α-ketoglutarate and 20 μM NADPH solution prepared in assay buffer was then added to each well and the reaction was maintained at 25° C. for 45 minutes. An aliquot of 10 μL of diaphorase solution (0.15 U/mL diaphorase and 30 µM Resazurin in assay buffer) was added to each well. The plate was maintained at 25° C. for 15 minutes and then read on a plate reader with excitation and emission wavelengths at 535 nm and 590 nm, respectively. The IC50 of a given compound was calculated by fitting the dose response curve of inhibition of NADPH consumption at a given concentration with the four parameter logistic equation.
# [3] = system: HCT116 isogenic IDH1-R132H mutant cells; experiment: Cellular 2-HG assay using HCT116 mutant IDH1 cells (R132H), RapidFire mass spectrometry; type: cell-based; conditions: Homo sapiens, read-out: HCT116 IDH1 R132H IC50 (Range)
# Protocol: (§1) Example 106—Cellular 2-HG assay using HCT116 mutant IDH1 cells
# (§2) HCT116 isogenic IDH1-R132H and IDH1-R132C mutant cells were cultured in growth media (McCoy's 5 A, 10% fetal bovine serum, 1× antibiotic-antimycotic solution and 0.3 mg/mL G418) in 5% CO2 in an incubator at 37° C. To prepare the assay, cells were trypsinized and resuspended in assay media (McCoy's 5 A with no L-glutamine, 10% fetal bovine serum, 1× antibiotic-antimycotic solution and 0.3 mg/mL G418). An aliquot of 10,000 cells/100 μL was transferred to each well of a clear 96-well tissue culture plate. The cells were incubated in 5% CO2 at 37° C. in an incubator overnight to allow for proper cell attachment. An aliquot of 50 μL of compound containing assay media were then added to each well and the assay plate was kept in 5% CO2 at 37° C. in an incubator for 24 hours. The media was then removed from each well and 150 μL of a methanol/water mixture (80/20 v/v) was added to each well. The plates were kept at −80° C. freezer overnight to allow for complete cell lysis. An aliquot of 125 μL of extracted supernatant was analyzed by RapidFire high-throughout-mass spectrometry (Agilent) to determine the cellular 2-HG level. The IC50 of a given compound was calculated by fitting the dose response curve of cellular 2-HG inhibition at a given concentration with the four parameter logistic equation.
# [4] = system: HCT116 isogenic IDH1-R132C mutant cells; experiment: Cellular 2-HG assay using HCT116 mutant IDH1 cells (R132C), RapidFire mass spectrometry; type: cell-based; conditions: Homo sapiens, read-out: HCT116 IDH1 R132C IC50 (Range)
# Protocol: as §1, §2
# [5] = HCT-116, cellular 2-HG level, HCT116 IDH1-R132H cells, 24 hours
# [6] = HCT-116, cellular 2-HG level, HCT116 IDH1-R132C cells, 24 hours
# Chain of IDH1-R132H recombinant protein (O75874 whole entry R132H): as the sequence (O75874 whole entry R132C) above, with C132H counted along it
IC50 [1] [nM],IC50 [2] [nM],"IC50 [3, 5] [nM]","IC50 [4, 6] [nM]",Compound,"IC50 ([3]; HCT-116, 24 h) [nM]","IC50 ([4]; HCT-116, 24 h) [nM]"
< 100,< 100,< 100,< 100,"CC(=O)Nc1ccnc(N[C@@H](C)c2cc3cc(Cl)ccc3[nH]c2=O)n1 [Compound I-25, (S)—N-(2-((1-(6-Chloro-2-oxo-1,2-dihydroquinolin-3-yl)ethyl)amino)pyrimidin-4-yl)acetamide]",,
< 100,< 100,100 to 1000,100 to 1000,C[C@H](Nc1nccc(NC(=O)C2CC2)n1)c1cc2cc(Cl)ccc2[nH]c1=O [Compound I-29],,
< 100,< 100,< 100,100 to 1000,CCC(=O)Nc1ccnc(N[C@@H](C)c2cc3cc(Cl)ccc3[nH]c2=O)n1 [Compound I-33],,
< 100,< 100,< 100,100 to 1000,"C[C@H](Nc1nccc(N2CCOC2=O)n1)c1cc2cc(Cl)ccc2[nH]c1=O [Compound I-44, (S)-3-(2-((1-(6-Chloro-2-oxo-1,2-dihydroquinolin-3-yl)ethyl)amino)pyrimidin-4-yl)oxazolidin-2-one]",,
100 to 1000,100 to 1000,100 to 1000,1000 to 10000,O=C1OCCN1c1ccnc(NCc2cc3cc(Cl)ccc3[nH]c2=O)n1 [Compound I-47],,
< 100,100 to 1000,100 to 1000,100 to 1000,"Cc1cccn1-c1ccnc(N[C@@H](C)c2cc3cc(Cl)ccc3[nH]c2=O)n1 [Compound I-51, (S)-6-Chloro-3-(1-((4-(2-methyl-1H-pyrrol-1-yl)pyrimidin-2-yl)amino)ethyl) quinolin-2(1H)-one]",,
100 to 1000,1000 to 10000,1000 to 10000,1000 to 10000,C[C@H](Nc1nccc(-n2ccnc2)n1)c1cc2cc(Cl)ccc2[nH]c1=O [Compound I-54],,
100 to 1000,100 to 1000,100 to 1000,100 to 1000,C[C@H](Nc1nccc(-n2cnc3c2CCC3)n1)c1cc2cc(Cl)ccc2[nH]c1=O [Compound I-55],,
< 100,1000 to 10000,1000 to 10000,1000 to 10000,"Cc1oncc1-c1ccnc(N[C@@H](C)c2cc3cc(Cl)ccc3[nH]c2=O)n1 [Compound I-58, (S)-6-Chloro-3-(1-((4-(5-methylisoxazol-4-yl)pyrimidin-2-yl)amino)ethyl)quinolin-2(1H)-one]",,
< 100,100 to 1000,100 to 1000,100 to 1000,"Cc1nnnn1-c1ccnc(N[C@@H](C)c2cc3cc(Cl)ccc3[nH]c2=O)n1 [Compound I-59, (S)-6-chloro-3-(1-((4-(5-methyl-1H-tetrazol-1-yl)pyrimidin-2-yl)amino)ethyl)quinolin-2(1H)-one]",,
< 100,100 to 1000,< 100,100 to 1000,"C[C@H](Nc1nccc(-c2cncn2CC(F)(F)F)n1)c1cc2cc(Cl)ccc2[nH]c1=O [Compound I-60, (S)-6-Chloro-3-(1-((4-(1-(2,2,2-trifluoroethyl)-1H-imidazol-5-yl)pyrimidin-2-yl)amino)ethyl)quinolin-2(1H)-one]",,
< 100,< 100,100 to 1000,100 to 1000,C[C@H](Nc1nccc(-c2cncn2CC2CC2)n1)c1cc2cc(Cl)ccc2[nH]c1=O [Compound I-61],,
< 100,< 100,100 to 1000,1000 to 10000,"C[C@H](Nc1nccc(-c2cnc3ccccn23)n1)c1cc2cc(Cl)ccc2[nH]c1=O [Compound I-63, (S)-6-chloro-3-(1-((4-(imidazo[1,2-a]pyridin-3-yl)pyrimidin-2-yl)amino)ethyl)quinolin-2(1H)-one]",,
< 100,100 to 1000,100 to 1000,100 to 1000,"CC(C)n1cncc1-c1ccnc(N[C@@H](C)c2cc3cc(Cl)ccc3[nH]c2=O)n1 [Compound I-64, (S)-6-chloro-3-(1-((4-(1-isopropyl-1H-imidazol-5-yl)pyrimidin-2-yl)amino)ethyl) quinolin-2(1H)-one]",,
100 to 1000,1000 to 10000,100 to 1000,1000 to 10000,"C[C@H](Nc1nccc(-n2cccc2C(F)(F)F)n1)c1cc2cc(Cl)ccc2[nH]c1=O [Compound I-65, (S)-6-Chloro-3-(1-((4-(2-(triflouromethyl)-1H-pyrrol-1-yl)pyrimidin-2-yl)amino)ethyl) quinolin-2(1H)-one]",,
100 to 1000,1000 to 10000,100 to 1000,100 to 1000,"C[C@H](Nc1nccc(-c2cnnn2C)n1)c1cc2cc(Cl)ccc2[nH]c1=O [Compound I-66, (S)-6-chloro-3-(1-((4-(1-methyl-1H-1,2,3-triazol-5-yl)pyrimidin-2-yl)amino)ethyl)quinolin-2(1H)-one]",,
< 100,< 100,< 100,100 to 1000,C[C@H](Nc1nccc(-c2cncn2Cc2ccccc2)n1)c1cc2cc(Cl)ccc2[nH]c1=O [Compound I-68],,
< 100,100 to 1000,< 100,< 100,C[C@H](Nc1nccc(-c2cncn2C)n1)c1cc2cc(Cl)ccc2[nH]c1=O [Compound I-71],,
< 100,100 to 1000,100 to 1000,1000 to 10000,CC(C)n1nccc1-c1ccnc(N[C@@H](C)c2cc3cc(Cl)ccc3[nH]c2=O)n1 [Compound I-75],,
100 to 1000,100 to 1000,100 to 1000,100 to 1000,CC(C)Cn1cncc1-c1ccnc(N[C@@H](C)c2cc3cc(Cl)ccc3[nH]c2=O)n1 [Compound I-85],,
100 to 1000,1000 to 10000,100 to 1000,1000 to 10000,C[C@H](Nc1nccc(-c2ccn[nH]2)n1)c1cc2cc(Cl)ccc2[nH]c1=O [Compound I-87],,
< 100,100 to 1000,100 to 1000,1000 to 10000,C[C@H](Nc1nccc(-c2cnsc2)n1)c1cc2cc(Cl)ccc2[nH]c1=O [Compound I-88],,
100 to 1000,1000 to 10000,1000 to 10000,1000 to 10000,Cc1ncccc1-c1ccnc(N[C@@H](C)c2cc3cc(Cl)ccc3[nH]c2=O)n1 [Compound I-90],,
100 to 1000,100 to 1000,100 to 1000,1000 to 10000,C[C@H](Nc1nccc(-c2cncc3ccccc23)n1)c1cc2cc(Cl)ccc2[nH]c1=O [Compound I-92],,
100 to 1000,100 to 1000,< 100,1000 to 10000,C[C@H](Nc1nccc(-c2cccnc2)n1)c1cc2cc(Cl)ccc2[nH]c1=O [Compound I-94],,
100 to 1000,100 to 1000,100 to 1000,1000 to 10000,C[C@H](Nc1nccc(-c2ccncc2)n1)c1cc2cc(Cl)ccc2[nH]c1=O [Compound I-95],,
< 100,100 to 1000,< 100,100 to 1000,Cc1cnccc1-c1ccnc(N[C@@H](C)c2cc3cc(Cl)ccc3[nH]c2=O)n1 [Compound I-96],,

Compound,IC50 [1] [nM],IC50 [2] [nM],"IC50 [3, 5] [nM]","IC50 [4, 6] [nM]","IC50 ([3]; HCT-116, 24 h) [nM]","IC50 ([4]; HCT-116, 24 h) [nM]"
"COc1nc(N[C@@H](C)c2cc3cc(Cl)ccc3[nH]c2=O)ncc1C#N [Compound I-36, (S)-2-((1-(6-Chloro-2-oxo-1,2-dihydroquinolin-3-yl)ethyl)amino)-4-methoxypyrimidine-5-carbonitrile]",< 100,100 to 1000,,,< 100,100 to 1000
